Our source for the melting point values is a melting point compilation (Tetko et al.).

SMILES strings stand for the structures.

With `CCOc1cccc(C=O)n1`, the melting point (as a rule, the temperature of the solid-liquid transition) lay within 55 to 57 °C. Next, `O=C1N(Cc2ccccc2)CCN1S(=O)(=O)Cl`: 112 to 114 °C; `NC(=O)CNS(=O)(=O)c1ccc(F)c(C(=O)O)c1`: 201 to 203 °C; `O=C(CN1CCNCC1)NC1CCCCC1`: 99 to 101 °C.

Take `O=c1[nH]cnc2cc(F)ccc12`: the melting point was in the range of 260 to 262 °C.

Turning to `O=c1c2cc(Cl)ccc2nc2n1CCC2`, the melting point was in the range of 180 to 182 °C. For `CCCNC(=O)C1CNc2ccccc2O1` (stereo not drawn), the melting point lay within 129 to 131 °C. `NC(=O)c1cccc(CS)n1` yielded a melting point of 61 to 63 °C. Next, `Cc1cc(C(=O)O)c2c(C)n[nH]c2n1`: 299 to 301 °C; `CC(=O)c1cccc(NC(=O)C(C)Cl)c1` (stereo not drawn): 111 to 113 °C; `Cc1nc2sccn2c1C=O`: 94 to 96 °C. Next, `Cc1c(C(=O)O)cnn1-c1ccc(Br)cc1`: 211 to 213 °C. Next, `NS(=O)(=O)CCCC(F)(F)F`: 66 to 68 °C; `CCc1ccc(C(=O)c2ccc(N)cc2)o1`: 124 to 126 °C. In turn, `NS(=O)(=O)c1cccc(NC(=O)CCl)c1` gave a melting point of 162 to 171 °C. Under `Cc1csc(Sc2ccc(N)cc2Cl)n1` stands 112 to 114 °C; under `C=CC(=O)Nc1ccccc1`, 103 to 106 °C; under `COc1c(C#N)cnc2ccccc12`, 106 to 108 °C. Under `Cc1ccc(-c2cc(N)nc(-c3ccccc3)c2)cc1` stands 110 to 112 °C. Under `CC(=O)NCc1ccc(-c2csc(N)n2)s1` stands 221 to 223 °C.

Turning to `COc1cc(C(=O)O)ccc1OCc1cnn(C)c1`, the melting point was 182 to 184 °C.

With `COC(=O)c1cc(=O)c2ccccc2[nH]1`, the melting point fell in the range of 223 to 225 °C. Next, `O=Cc1cnc2ccccn12`: 118 to 120 °C; `NS(=O)(=O)c1ccc(NCCC(=O)O)c([N+](=O)[O-])c1`: 175 to 177 °C. As for `COC(=O)C1Cc2ccccc2CN1C(=O)CCl` (stereo not drawn), the melting point was 85 to 87 °C. Under `OCc1cnc(-c2ccco2)o1` stands 99 to 101 °C. In turn, `O=C(Cn1ccnc1)c1cccc(F)c1` yielded a melting point of 113 to 115 °C. For the molecule `O=c1cccn[nH]1`, the melting point fell in the range of 94 to 98 °C. Turning to `CN(C)C(=O)C1CNc2ccccc2O1` (stereo not drawn), the melting point is 90 to 92 °C. In turn, `O=C(O)CCn1cc(Br)cn1` returned a melting point of 112 to 114 °C. Molecule `CC(C)(C)OC(=O)N1CCN(c2nc(N)ns2)CC1` came in with a melting point of 196 to 198 °C. Next, `Nc1ccc(N2CCN(C(=O)C3CC3)CC2)cn1`: 153 to 155 °C; `NC(CC(=O)Nc1ccc(F)cc1)=NO`: 142 to 144 °C; `Nc1cc(Cl)n[nH]1`: 93 to 95 °C. Under `COC(=O)c1ccc2c(c1)NCC(=O)N2` stands 252 to 254 °C; under `Cc1nnc(S)n1CCS(C)(=O)=O`, 193 to 195 °C.

The molecule `Cc1nn(-c2cccc(C(F)(F)F)c2)c2sc(C(=O)O)cc12` displayed a melting point of 271 to 273 °C.

Take `CC(=O)Nc1ccc(CCO)cc1`: the melting point was 106 to 108 °C. Next, `Nc1cc(-c2ccsc2)n[nH]1`: 127 to 129 °C; `CC(C)(C)OC(=O)N1CCc2[nH]c(=O)c(C#N)cc2C1`: 239 to 241 °C. Under `NC(=O)NCc1ccccn1` stands 139 to 141 °C; under `Nc1nnc(Cc2cccc(Cl)c2)s1`, 196 to 198 °C. Under `O=C(CCl)Nc1ccccc1C(=O)NC1CC1` stands 170 to 172 °C; under `COc1ccc(-c2cncc(C(=O)O)c2)cc1`, 278 to 280 °C. `CN(Cc1ccccc1)c1ccc([N+](=O)[O-])cn1` registered a melting point of 56 to 58 °C. Consider `CC(C)(C)CCN1CCNCC1`, for which the melting point is 119 to 122 °C. Under `CC(=O)c1cc([N+](=O)[O-])ccc1F` stands 48 to 50 °C; under `O=S(=O)(O)c1ccnc2ccccc12`, 317 to 319 °C; under `O=C(O)C1CCN(S(=O)(=O)N2CCCCC2)CC1`, 131 to 133 °C. Under `NC(=NO)c1cccc(CN2CCCCC2)c1` stands 153 to 155 °C; under `O=C(O)C=C1CCOCC1`, 99 to 101 °C; under `Cc1ccc(C(=O)c2c(N)sc3c2CCC3)c(C)c1`, 163 to 165 °C. Next, `CC(C)c1ccc(S(=O)(=O)N2CCNCC2)cc1`: 125 to 127 °C; `CC(CO)NCc1ccccc1Cl` (stereo not drawn): 54 to 56 °C; `CCc1ccc(O)c(C(=O)O)c1`: 118 to 120 °C. `Cc1nc2ccccc2n1N` gave a melting point of 145 to 147 °C. Next, `Cc1nc(-c2cccc(NC(=O)CCl)c2)cs1`: 45 to 47 °C; `CCCCOc1ccc(C(=O)O)cc1OCCCC`: 140 to 142 °C. Next, `O=C(O)c1ccc(F)c(S(=O)(=O)N2CCCC2)c1`: 223 to 225 °C; `O=C(O)CSc1nnc(-c2ccc(F)cc2)o1`: 140 to 142 °C. `O=C(O)CC1CCS(=O)(=O)C1` (stereo not drawn) yielded a melting point of 87 to 89 °C. Under `O=C(O)c1sc2cc(Br)ccc2c1Cl` stands 286 to 288 °C; under `O=C1NCCN1CCN1CCNCC1`, 139 to 141 °C.

In the case of `NC(=NO)c1ccnc(N2CCCCC2)c1`, the melting point was 179 to 181 °C. Next, `O=C(O)CCC(=O)N1CCOCC1`: 61 to 65 °C; `CC(C)(C)c1cc(N)n(C2CCS(=O)(=O)C2)n1` (stereo not drawn): 247 to 249 °C. Under `Cc1nc(N)nc2c1CCCC2` stands 181 to 185 °C; under `CCC(O)CNc1ccccc1` (stereo not drawn), 48 to 50 °C; under `O=C(O)C1CCN(c2ccccc2[N+](=O)[O-])CC1`, 158 to 160 °C. With `COC(=O)c1ccc(C)c(NCc2[nH]cnc2C)c1`, the melting point is 180 to 182 °C.

As to `O=C(CCl)NCC1COc2ccccc2O1` (stereo not drawn), the melting point lay within 212 to 214 °C.

`O=Cc1ccc(-c2nc3ccccc3s2)o1` displayed a melting point of 177 to 179 °C.

In the case of `O=C(O)c1ccc(S(=O)(=O)CC(F)(F)F)cc1`, the melting point is 239 to 241 °C. Under `NC1CCN(c2ncccn2)CC1` stands 82 to 84 °C; under `CCCCc1ccc(NS(=O)(=O)c2cccc(C(=O)O)c2)cc1`, 206 to 208 °C. In turn, `COCCNc1ccc([N+](=O)[O-])cc1C(=O)O` showed a melting point of 204 to 206 °C. Under `NNC(=O)CNc1ccccc1F` stands 99 to 101 °C; under `Nc1ccc(Cc2nc3ccccc3s2)cc1`, 219 to 221 °C; under `CC(C)c1ccc(-n2ccnc2SCC(=O)O)cc1`, 80 to 82 °C.

`Cc1cc(N)nc(C(C)C)n1`: the melting point lay in the range of 196 to 198 °C. Under `CCOc1ccc(C(N)=O)cn1` stands 179 to 181 °C. Next, `CC(c1ccccc1)C(O)C(=O)O` (stereo not drawn): 115 to 117 °C; `N#Cc1c(OCCCO)n[nH]c1N`: 155 to 157 °C. Under `Cc1noc(-c2ccc(N)c(Cl)c2)n1` stands 141 to 143 °C. In turn, `CC1CCCN1CC(=O)O` (stereo not drawn) showed a melting point of 167 to 169 °C. `N#CC1(NC(=O)c2ccccc2)CCCC1` displayed a melting point of 130 to 132 °C. `Clc1c(Br)ccc2ccccc12` had a melting point of 51 to 53 °C. `O=[N+]([O-])c1ccc(Cl)c2cccnc12` had a melting point of 130 to 138 °C.

Consider `O=C(O)c1cn(Cc2ccccc2)nc1-c1cccs1`, for which the melting point was in the range of 131 to 133 °C. `CC(=O)N(c1ccc(F)cc1)c1nc(CCl)cs1`: the melting point was 127 to 129 °C. Next, `Nc1ccc(Cl)c(CO)n1`: 147 to 149 °C; `O=C(O)c1ccc(S(=O)(=O)N2CCOCC2)cc1`: 287 to 289 °C; `O=C(CCl)NC(=O)Nc1ccccc1`: 161 to 163 °C.

In turn, `Nc1ncc(Br)cc1F` displayed a melting point of 87 to 89 °C. Under `OCC(c1ccc(Br)cc1)N1CCNCC1` (stereo not drawn) stands 109 to 111 °C; under `Cn1c(N)c(C(=O)CCl)c(=O)[nH]c1=O`, 356 to 358 °C; under `CCCCc1nnc(N)o1`, 139 to 141 °C. Next, `O=C(O)c1cc(-c2ccccc2)nc2c1cnn2Cc1cccnc1`: 210 to 212 °C; `O=[N+]([O-])c1ccc(F)c(-n2cnnn2)c1`: 101 to 103 °C; `CCOC(=O)NC(=S)Nc1nccs1`: 169 to 171 °C. Next, `COCCOc1ccc(CC#N)cc1`: 49 to 51 °C.

Molecule `O=C(O)c1csc(Cc2ccccc2F)n1` registered a melting point of 154 to 156 °C. In the case of `Nc1ccc(S(N)(=O)=O)cc1F`, the melting point is 166 to 168 °C. Next, `O=C(CCl)N1c2ccccc2CCc2ccccc21`: 96 to 98 °C. Next, `NC(=O)NC(=O)OCCCl`: 185 to 187 °C.

Molecule `Cc1cc(-c2nnco2)ccc1[N+](=O)[O-]` came in with a melting point of 119 to 121 °C. As for `O=C(O)CSc1nnc(-c2ccc(Cl)cc2Cl)[nH]1`, the melting point fell in the range of 161 to 163 °C. Next, `CN1CCNc2cccnc21`: 89 to 91 °C; `CCCS(=O)(=O)Nc1ccc(N)cc1`: 111 to 113 °C. Under `O=C1OCC(c2ccc(Cl)cc2)=C1c1cccs1` stands 65 to 67 °C; under `Nc1nnnn1-c1ccccc1`, 159 to 161 °C; under `COC(=O)c1ccc(COc2ccccc2C=O)cc1`, 90 to 92 °C. Next, `Nc1ncn(C2CCCCC2)n1`: 129 to 131 °C; `Cn1cnc2cc(C=O)ccc21`: 99 to 101 °C. With `O=C(c1cn[nH]c1)N1CCN(c2ccccn2)CC1`, the melting point fell in the range of 194 to 196 °C. Next, `CN(C)C(=O)CCn1cc(Br)cn1`: 64 to 66 °C; `Cc1coc(-c2ccc(C)c(N)c2)n1`: 114 to 116 °C; `CCOC(=O)c1c(NC(=O)CCl)sc(-c2ccccc2)c1C`: 106 to 108 °C. Under `CSc1ccc(C(=O)O)cc1[N+](=O)[O-]` stands 225 to 227 °C. Next, `N#Cc1cc(C(F)(F)F)ccc1-n1cncn1`: 114 to 116 °C; `Cc1nn(-c2ccccc2)c(N2CCCC2)c1C=O`: 71 to 73 °C; `NC(=O)CNCc1ccccc1`: 90 to 92 °C.

In turn, `OCc1ccc(O)c(Cl)c1` had a melting point of 85 to 87 °C.
